PMC11772769, “Selective cargo and membrane recognition by SNX17 regulates its interaction with Retriever” (EMBO Reports, 2024)
Numbering of substitutions follows the chain as printed. Read-outs that look alike come from different tables or passages of the source. Where no end group is shown, it is not given here.

How the values were obtained:
MBP-SNX17 WT = target: T1, MBP-SNX17 WT (Homo sapiens, UniProt Q15036); test: Fluorescence anisotropy binding of 5-FAM peptides to MBP-SNX17 wild-type
T1 construct: M protein marker, R Retriever complex, FL full-length; His (N, cleaved yes); made in house; host or cells: Escherichia coli BL21(DE3)
T1 sequence (Q15036 1-470): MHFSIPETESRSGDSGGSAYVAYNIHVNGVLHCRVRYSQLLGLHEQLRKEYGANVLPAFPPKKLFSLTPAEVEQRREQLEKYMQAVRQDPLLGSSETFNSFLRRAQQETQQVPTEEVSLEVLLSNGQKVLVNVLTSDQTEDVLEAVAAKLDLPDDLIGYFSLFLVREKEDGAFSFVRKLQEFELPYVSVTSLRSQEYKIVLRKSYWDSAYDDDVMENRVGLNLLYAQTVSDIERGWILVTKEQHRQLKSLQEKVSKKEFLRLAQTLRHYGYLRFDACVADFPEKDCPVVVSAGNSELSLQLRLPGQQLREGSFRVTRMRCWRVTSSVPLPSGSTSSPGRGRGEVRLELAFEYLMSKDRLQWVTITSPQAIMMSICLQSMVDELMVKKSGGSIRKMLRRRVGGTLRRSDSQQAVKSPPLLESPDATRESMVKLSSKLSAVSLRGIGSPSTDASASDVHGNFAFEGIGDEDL
Protocol: (§1) Lyophilized peptides were resuspended in 100 mM Hepes pH 8.0 at 5 mg/ml and further diluted in the assay buffer (50 mM Hepes pH 7.5, 300 mM NaCl, and 1 mM DTT). […] The mixture was incubated at 25 °C for at least 30 min and then transferred to 96 Flat Black plates. Fluorescence anisotropy was measured at 25 °C using Spark 10M Plate Reader (Tecan) with a 485/20 excitation filter and a 535/35 emission filter. The dissociation constants were calculated in GraphPad Prism by nonlinear regression fitting of the experimental data to a one-site total binding model. The final KD measurement is the mean of at least two independent experiments.

[1] = target: T2, SNX17FERM-CT (amino acids 109-470) (Homo sapiens, UniProt Q15036); test: Fluorescence anisotropy binding of 5-FAM cargo peptides to SNX17FERM-CT
T2 construct: His-Sumo3 (N, cleaved yes); made in house; host or cells: Escherichia coli BL21(DE3)
T2 sequence (Q15036 109-470): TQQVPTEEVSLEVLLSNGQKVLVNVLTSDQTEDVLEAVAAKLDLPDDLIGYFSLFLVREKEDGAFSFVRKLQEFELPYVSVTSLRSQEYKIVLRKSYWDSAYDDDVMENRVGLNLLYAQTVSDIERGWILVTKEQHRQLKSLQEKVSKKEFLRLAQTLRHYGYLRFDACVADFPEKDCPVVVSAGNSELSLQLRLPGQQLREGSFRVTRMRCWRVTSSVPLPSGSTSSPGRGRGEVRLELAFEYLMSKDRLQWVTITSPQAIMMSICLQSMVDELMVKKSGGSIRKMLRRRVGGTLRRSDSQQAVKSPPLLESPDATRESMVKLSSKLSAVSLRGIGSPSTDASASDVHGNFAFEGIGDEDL
Protocol: as §1

MBP-SNX17 L470G = target: T3, MBP-SNX17 L470G (Homo sapiens, UniProt Q15036, L470G); test: Fluorescence anisotropy binding of 5-FAM cargo peptides to MBP-SNX17 L470G
T3 construct: M protein marker, R Retriever complex, FL full-length; His (N, cleaved yes); made in house; host or cells: Escherichia coli BL21(DE3)
T3 sequence (Q15036 1-470 L470G): T1 sequence (Q15036 1-470) with L470G
Protocol: as §1, with “The peptides used for binding assays were synthesized with an N-terminal 5-Carboxyfluorescein (FAM) and HPLC purified (≥95%) by GenScript. Lyophilized” for “Lyophilized”

MBP-SNX17V380D = target: T4, MBP-SNX17V380D (Homo sapiens, UniProt Q15036, V380D); test: Fluorescence anisotropy binding of 5-FAM peptides to MBP-SNX17 V380D
T4 construct: M protein marker, R Retriever complex, FL full-length; His (N, cleaved yes); made in house; host or cells: Escherichia coli BL21(DE3)
T4 sequence (Q15036 1-470 V380D): T1 sequence (Q15036 1-470) with V380D
Protocol: as §1

MBP = MBP (Escherichia coli, UniProt P0AEX9); test: Fluorescence anisotropy, MBP negative control; format: binding
Protocol: as §1

KLITYDNPAYEGID [L2 14-mer]
Kd (MBP-SNX17 WT): 1100 ± 100 nM | Kd [1]: 640 nM | Kd (MBP-SNX17 L470G): 1100 ± 600 nM | Kd (MBP-SNX17V380D; 0.1 μM 5-FAM peptide, pH 7.5, 300 mM NaCl, 25 °C, one-site total binding, Bmax fixed at 240, three biological replicates (Fig. 4E)): > 32 µM | Kd (MBP-SNX17V380D; 5-FAM peptide, replicate Y1, sheet KD-L2-14-mer, unit inferred, read-out: KD MBP-SNX17V380D): > 32 µM | Kd (MBP-SNX17V380D; 5-FAM peptide, replicate Y2, sheet KD-L2-14-mer, unit inferred, read-out: KD MBP-SNX17V380D): > 32 µM | Kd (MBP-SNX17V380D; 5-FAM peptide, replicate Y3, sheet KD-L2-14-mer, unit inferred, read-out: KD MBP-SNX17V380D): > 32 µM | Kd (MBP; 0.1 μM 5-FAM peptide, pH 7.5, 300 mM NaCl, 25 °C (Fig. EV3B), read-out: KD MBP (negative control)): > 32 µM | Kd (MBP; 5-FAM peptide, replicate Y1, sheet KD-L2-14-mer, unit inferred, read-out: KD MBP): > 32 µM | Kd (MBP; 5-FAM peptide, replicate Y2, sheet KD-L2-14-mer, unit inferred, read-out: KD MBP): > 32 µM | Kd (MBP; 5-FAM peptide, replicate Y3, sheet KD-L2-14-mer, unit inferred, read-out: KD MBP): > 32 µM
